Experimental data from PubChem BioAssay (NCI).
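Following 48 hours of exposure in 96-well plates, responses at five concentrations were used to interpolate endpoints linearly. TGI: concentration producing complete growth inhibition.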

How the values were obtained:
Assay in all cases: NCI anticancer screen, dose series, 48 h
SF-295 CNS = tested on: SF-295 CNS
SK-MEL-2 melanoma = tested on: SK-MEL-2 melanoma
SW-620 colon = tested on: SW-620 colon
786-0 renal = tested on: 786-0 renal
UACC-62 melanoma = tested on: UACC-62 melanoma
HL-60(TB) leukemia = tested on: HL-60(TB) leukemia
M14 melanoma = tested on: M14 melanoma
SK-MEL-28 melanoma = tested on: SK-MEL-28 melanoma
MALME-3M melanoma = tested on: MALME-3M melanoma
RPMI-8226 leukemia = tested on: RPMI-8226 leukemia
A549 NSCLC = tested on: A549 NSCLC
SN12C renal = tested on: SN12C renal
SK-OV-3 ovarian = tested on: SK-OV-3 ovarian
CAKI-1 renal = tested on: CAKI-1 renal
HOP-62 NSCLC = tested on: HOP-62 NSCLC
LOX IMVI melanoma = tested on: LOX IMVI melanoma
MCF7 breast = tested on: MCF7 breast
DU-145 prostate = tested on: DU-145 prostate
HS 578T breast = tested on: HS 578T breast
NCI/ADR-RES ovarian = tested on: NCI/ADR-RES ovarian

| Structure (SMILES) | TGI (SF-295 CNS) [µM] | TGI (SK-MEL-2 melanoma) [µM] | TGI (SW-620 colon) [µM] | TGI (786-0 renal) [µM] | TGI (UACC-62 melanoma) [µM] | TGI (HL-60(TB) leukemia) [µM] | TGI (M14 melanoma) [µM] | TGI (SK-MEL-28 melanoma) [µM] | TGI (MALME-3M melanoma) [µM] | TGI (RPMI-8226 leukemia) [µM] | TGI (A549 NSCLC) [µM] | TGI (SN12C renal) [µM] | TGI (SK-OV-3 ovarian) [µM] | TGI (CAKI-1 renal) [µM] | TGI (HOP-62 NSCLC) [µM] | TGI (LOX IMVI melanoma) [µM] | TGI (MCF7 breast) [µM] | TGI (DU-145 prostate) [µM] | TGI (HS 578T breast) [µM] | TGI (NCI/ADR-RES ovarian) [µM] |
| --- | --- | --- | --- | --- | --- | --- | --- | --- | --- | --- | --- | --- | --- | --- | --- | --- | --- | --- | --- | --- |
| CC(OC1CC(=O)CC2C(=O)C=CC(=O)C12)c1ccccc1 (centres undefined) | 33 | 34.9 | 27.3 | 26.9 | 29.7 | 20 | 33.3 | 36.4 | 34.9 | 58.5 | 40.2 | 33.2 | > 56.2 | 31.9 | > 58.8 | 33.3 |  |  |  |  |
| CCOC(=O)C1(Br)C(c2ccccc2)NC(=O)N(C2OC(COC(=O)c3ccccc3)C(OC(=O)c3ccccc3)C2OC(=O)c2ccccc2)C1(C)Br (centres undefined) | > 100 | > 100 | 22.4 | > 100 | 60.1 |  | > 63.6 | > 83.8 | 66.7 | 33.2 | > 100 | > 100 | > 100 | > 100 | > 100 | > 100 |  |  |  |  |
| CC(C)c1cccc(C(C)C)c1NC(=O)C(=O)CC(=O)CC(c1ccccc1)c1c(O)c2ccccc2oc1=O (centres undefined) | > 100 | > 100 | > 100 | > 100 | > 100 | > 100 | > 100 | > 100 | > 100 | > 100 | > 100 | > 100 | > 100 | > 100 | > 100 |  |  |  |  |  |
| OC1CSCCCSCCSCCCSC1 | > 100 | > 100 | > 100 | > 100 | > 100 |  | > 100 | > 100 |  | > 100 | > 100 | > 100 | > 100 | > 100 | > 100 | > 100 | > 100 | > 100 | > 100 |  |
| Nc1ccc(C(=O)NN2C(=O)C(Cl)C2c2cc(Br)cc(Br)c2O)cc1 (centres undefined) | > 100 | > 100 | > 100 | > 100 | 24.8 | > 100 | 28.2 | > 100 | 97.9 | > 100 | 91.1 |  | > 100 | 64 | > 100 | 33.8 |  |  |  |  |
| Fc1ccc2c(c1)SC1Oc3ccccc3-c3c1c-2nn3-c1ccccc1 (centres undefined) | > 100 | > 100 | > 100 | > 100 |  | > 100 |  | > 100 | > 100 | > 100 | > 100 |  | > 100 |  | > 100 | > 100 |  |  |  |  |
| COc1cc(C(C#N)NNC(=O)Cc2ccccc2)cc(OC)c1OC (centres undefined) | > 100 | > 100 | > 100 | > 100 | > 100 | > 100 | > 100 | > 100 | > 100 | > 100 | > 100 | > 100 | > 100 | > 100 | > 100 | > 100 |  |  |  |  |
| NC(N)=NCc1ccc2c(c1)OCO2 | > 100 | > 100 | > 100 | > 100 | > 100 | > 100 | > 100 | > 100 | > 100 | > 100 | > 100 |  | > 100 | > 100 | > 100 | > 100 |  | > 100 | > 100 | > 100 |
| CC(C)(C)OC(=O)NNC(=O)C1Cc2ccccc2OC1=O (centres undefined) | > 100 | > 100 | > 100 | > 100 | > 100 |  | > 100 | > 100 | > 100 | > 100 | > 100 | > 100 | > 100 | > 100 | > 100 |  |  | > 100 | > 100 | > 100 |
| O=C1CCc2nc3ncccc3cc2C1 | > 100 | > 100 | > 100 | > 100 |  |  | > 100 | > 100 | > 100 | > 100 | > 100 | > 100 | > 100 | > 100 | > 100 |  |  |  |  | > 100 |
| CC1(C)C(=O)N(O)C(C)(C)N1N=O | > 10 | > 10 | > 10 | > 10 |  | > 10 | > 10 |  | > 10 | > 10 | > 10 | > 10 |  | > 10 | > 10 |  | > 10 | > 10 |  | > 10 |
| CCCCNC(=O)OCC(COc1ccccc1OC)OC(=O)NCCCC (centres undefined) | > 100 | > 100 | > 100 | > 100 | > 100 | > 100 | > 100 | > 100 | > 100 | > 100 | > 100 | > 100 | > 100 | > 100 | > 100 | > 100 |  |  |  |  |
| C/C(=N/NC(=S)N(C)CCc1ccccn1)c1cnccn1 | 4.65 | 26.9 | 32.2 | 6.8 |  | > 100 | 7.37 | 40.3 | 5.11 | 26.1 | 11.5 | 10 | 0.947 | 10.5 | 9.62 |  | 30.6 | > 32 | 53.9 |  |
| C=CC1(c2ccccc2Cl)N/C(=C/OCC)CO1 (centres undefined) | > 100 | > 100 | 28.4 | > 100 | > 100 | > 100 | > 100 | > 100 | > 100 | 65 | > 100 | > 100 | > 100 | > 100 | > 100 | 55.3 |  |  |  |  |
